Compound in the experiment “Ponatinib + Navitoclax”: Cc1ccc(C(=O)Nc2ccc(CN3CCN(C)CC3)c(C(F)(F)F)c2)cc1C#Cc1cnc2cccnn12 [Ponatinib] + CC1(C)CCC(c2ccc(Cl)cc2)=C(CN2CCN(c3ccc(C(=O)NS(=O)(=O)c4ccc(N[C@H](CCN5CCOCC5)CSc5ccccc5)c(S(=O)(=O)C(F)(F)F)c4)cc3)CC2)C1 [Navitoclax] (partner 0.5 µM)
The experiment is described as follows: relative viability (nuclei count vs DMSO), 5 days (fraction); higher = more cells survive. The procedure, abridged: (§1)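 Relative viability is defined as nuclei in treated wells over nuclei in vehicle wells. Duplicate plates were run and medians reported. Lung cancer cell lines in 1536-well plates were dosed by pin tool one day after seeding, with one drug or with a fixed anchor-drug dose plus five library-drug doses (not always all listed) in √10 steps, and nuclei were counted after 5 days.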

Compound in the experiment “Pazopanib + Foretinib”: Cc1ccc(Nc2nccc(N(C)c3ccc4c(C)n(C)nc4c3)n2)cc1S(N)(=O)=O [Pazopanib] + COc1cc2c(Oc3ccc(NC(=O)C4(C(=O)Nc5ccc(F)cc5)CC4)cc3F)ccnc2cc1OCCCN1CCOCC1 [Foretinib] (partner 0.25 µM)
The experiment is described as above. The procedure, abridged:
as §1

With EBC-1, the relative viability in the experiment with Ponatinib + Navitoclax (first compound 0.002 µM) is 0.504; with Ponatinib + Navitoclax (first compound 0.006325 µM), 0.534; with Ponatinib + Navitoclax (first compound 0.06325 µM) it was 0.358; in the experiment with Ponatinib + Navitoclax (first compound 0.2 µM) it was 0.304; with Pazopanib + Foretinib (first compound 0.01 µM), 0.095; with Pazopanib + Foretinib (first compound 0.03162 µM), 0.104. Besides, the relative viability came to 0.0934 with Pazopanib + Foretinib (first compound 0.1 µM), 0.103 with Pazopanib + Foretinib (first compound 0.3162 µM) and 0.0962 with Pazopanib + Foretinib (first compound 1 µM).

The record behind these values is the supplement of paper PMC10307832.
